Measurements published in patent US20080318792A1, “Extension of pollination period” (priority 2007, published 2008).

Columns and labels:
Assay type in all cases: in vivo
[1] = system: sweet corn seed (cv. Silver Queen); test: Germination of sweet corn seed on moist blotters at 15° C. after seed treatment; conditions: blotters 15° C.; for Coleoptile protrusion CGERM / Radicle protrusion RGERM: maximum by day 27
Experimental: ABA acid and three analogs were dissolved in ethanol to produce the desired doses. […] Aliquotes (250 μl) of ethanol solutions of the agents were added to 10 g samples of the seed and the seeds were agitated and dried overnight. Germination tests were conducted on moist blotters at 15° C. in petri dishes. Four replications of 10 seeds each were performed.
Radicle and coleoptile protrusion were counted approximately daily for 27 days. The maximum radical protrusion (RGERM) and maximum coleoptile protrusion (CGERM) were expressed as percentages from each dish. The daily counts were expressed as proportions of the protrusion maxima from each dish, and Gompertz curves were fitted to the protrusion data using SAS Proc NLIN. From the parameters of the models, median time to radicle protrusion (RT50), and median-time-to-coleoptile protrusion (CT50) were estimated for each dish. Analysis of variance was performed and means calculated for each of the four responses (RGERM, CGERM, RT50 and CT50).

[2] = system: corn seed lot "Hughes High" (commercial hybrid); test: Dose-response of corn soil emergence to ABA seed treatment in calendar and thermal time
Text: Because corn germination and phenology is driven by heat, the corn seed industry uses thermal time (Growing-Degree-Days, or GDD) rather than calendar time to measure and predict flowering. The standard formula for calculating the GDD contribution from one calendar day for corn is: where “Max temp” is either the high temperature for the day or 86, whichever is lower, and “Min temp” is either the low temperature for the day in F or 50, whichever is higher. In growth chambers at constant temperature the calculation is trivial. For example, in our nominally 25° C. chamber, the soil temperature is actually about 26.1° C. (79 F) due to the heat contribution of the light. This time corresponds to 29 GDD. […] The purpose of this experiment was to evaluate the dose response of corn seed emergence after seed treatment with ABA in terms of thermal time. ABA was applied at 0, 1, 2, 3, 4, 5, 10, 15, 20 and 25 g/cwt as the free acid in experimental seed treatment slurries as described under Example 1. The seed lot was designated as “Hughes High” and was a commercial hybrid. The seed was planted in soil in plastic boxes as described under Example 2, and incubated at 25° C. and 18° C. as described under Example 2. Emergence was counted every 1-2 days and the data reduced as described under Example 2. The daily heat unit contribution was calculated for the two chambers, and the responses examined in cumulative thermal time as well as calendar time.

[3] = system: commercial inbred sorghum lines; test: Soil emergence of sorghum inbreds after ABA seed treatment; conditions: for Emergence / Median time to emergence / Quartile range: soil 20/30° C.
Experimental: Seed of four commercial inbred sorghum lines were obtained from a genetics supplier. These inbreds are representative of many male parents used in hybrid sorghum seed production. ABA in the form of the free acid was applied at rates of 0, 10, 25, 50 and 100 g/cwt. Application was performed as described under Example 2 above, except the Maxim XL (Syngenta) was applied at 0.334 oz/cwt, Allegiance FL (Bayer), was applied at 0.75 oz/cwt, and Thiram 42-S (Bayer) was applied at 3.5 oz/cwt, using a slurry rate of 25 oz/cwt. The seed was planted in soil in plastic boxes as described under Example 2, except at a depth of 2 cm., and incubated at 20/30° C. (AOSA Rules for Testing Seeds, 2005). Emergence was counted every 1-3 days and the data reduced as described under Example 2.

[4] = ABA free acid 20 g/cwt, 25° C. soil test
[5] = sorghum inbred 43, ABA 10 g/cwt
[6] = sorghum inbred 43, ABA 25 g/cwt
[7] = sorghum inbred 43, ABA 50 g/cwt
[8] = sorghum inbred 43, ABA 100 g/cwt
[9] = sorghum inbred 44, ABA 10 g/cwt
[10] = sorghum inbred 44, ABA 25 g/cwt
[11] = sorghum inbred 44, ABA 50 g/cwt
[12] = sorghum inbred 44, ABA 100 g/cwt
[13] = sorghum inbred 45, ABA 10 g/cwt
[14] = sorghum inbred 45, ABA 25 g/cwt
[15] = sorghum inbred 45, ABA 50 g/cwt
[16] = sorghum inbred 45, ABA 100 g/cwt
[17] = sorghum inbred 46, ABA 10 g/cwt
[18] = sorghum inbred 46, ABA 25 g/cwt
[19] = sorghum inbred 46, ABA 50 g/cwt
[20] = sorghum inbred 46, ABA 100 g/cwt

Compound: CC1=CC(=O)CC(C)(C)[C@@]1(O)/C=C/C(C)=C\C(=O)O [ABA, S-(+)-abscisic acid]
- Coleoptile protrusion CT50 ([1]; dose 10 ppm): 9.70 days
- Radicle protrusion RT50 ([1]; dose 10 ppm): 5.99 days
- Coleoptile protrusion CGERM ([1]; dose 10 ppm): 80.0%
- Radicle protrusion RGERM ([1]; dose 10 ppm): 87.5%
- Coleoptile protrusion CT50 ([1]; dose 100 ppm): 12.80 days
- Radicle protrusion RT50 ([1]; dose 100 ppm): 7.28 days
- Coleoptile protrusion CGERM ([1]; dose 100 ppm): 65.0%
- Radicle protrusion RGERM ([1]; dose 100 ppm): 77.5%
- Coleoptile protrusion CT50 ([1]; dose 1000 ppm): 18.44 days
- Radicle protrusion RT50 ([1]; dose 1000 ppm): 8.58 days
- Coleoptile protrusion CGERM ([1]; dose 1000 ppm): 22.5%
- Radicle protrusion RGERM ([1]; dose 1000 ppm): 85.0%
- effect on emergence of corn seedlings ([2]; ABA free acid 1-25 g/cwt, 18 and 25° C.): delayed emergence progressively as the dose was increased
- Emergence ([2]; ABA free acid 1 g/cwt, 18° C. soil test): 94.2%
- Emergence ([2]; ABA free acid 1 g/cwt, 25° C. soil test): 97.1%
- Emergence ([2]; ABA free acid 2 g/cwt, 18° C. soil test): 91.2%
- Emergence ([2]; ABA free acid 2 g/cwt, 25° C. soil test): 95.5%
- Emergence ([2]; ABA free acid 3 g/cwt, 18° C. soil test): 94.0%
- Emergence ([2]; ABA free acid 3 g/cwt, 25° C. soil test): 92.1%
- Emergence ([2]; ABA free acid 4 g/cwt, 18° C. soil test): 89.2%
- Emergence ([2]; ABA free acid 4 g/cwt, 25° C. soil test): 96.3%
- Emergence ([2]; ABA free acid 5 g/cwt, 18° C. soil test): 92.0%
- Emergence ([2]; ABA free acid 5 g/cwt, 25° C. soil test): 95.0%
- Emergence ([2]; ABA free acid 10 g/cwt, 18° C. soil test): 94.0%
- Emergence ([2]; ABA free acid 10 g/cwt, 25° C. soil test): 89.0%
- Emergence ([2]; ABA free acid 15 g/cwt, 18° C. soil test): 92.1%
- Emergence ([2]; ABA free acid 15 g/cwt, 25° C. soil test): 96.3%
- Emergence ([2]; ABA free acid 20 g/cwt, 18° C. soil test): 90.1%
- Emergence [2, 4]: 95.0%
- delay [2, 4]: 3.4 days
- Emergence ([2]; ABA free acid 25 g/cwt, 18° C. soil test): 88.1%
- Emergence ([2]; ABA free acid 25 g/cwt, 25° C. soil test): 97.1%
- effect on emergence of sorghum inbreds ([3]; ABA 10-100 g/cwt): progressively and significantly delayed emergence
- Emergence [3, 5]: 94.0%
- Median time to emergence [3, 5]: 5.1 days
- Quartile range [3, 5]: 1.5 days
- Emergence [3, 6]: 94.2%
- Median time to emergence [3, 6]: 6.3 days
- Quartile range [3, 6]: 2.2 days
- Emergence [3, 7]: 87.2%
- Median time to emergence [3, 7]: 8.6 days
- Quartile range [3, 7]: 3.7 days
- Emergence [3, 8]: 87.9%
- Median time to emergence [3, 8]: 11.3 days
- Quartile range [3, 8]: 4.8 days
- Emergence [3, 9]: 79.0%
- Median time to emergence [3, 9]: 5.7 days
- Quartile range [3, 9]: 2.6 days
- Emergence [3, 10]: 73.2%
- Median time to emergence [3, 10]: 8.4 days
- Quartile range [3, 10]: 3.2 days
- Emergence [3, 11]: 71.3%
- Median time to emergence [3, 11]: 10.7 days
- Quartile range [3, 11]: 4.6 days
- Emergence [3, 12]: 49.0%
- Median time to emergence [3, 12]: 14.4 days
- Quartile range [3, 12]: 4.7 days
- Emergence [3, 13]: 81.3%
- Median time to emergence [3, 13]: 5.4 days
- Quartile range [3, 13]: 1.5 days
- Emergence [3, 14]: 77.1%
- Median time to emergence [3, 14]: 7.3 days
- Quartile range [3, 14]: 3.1 days
- Emergence [3, 15]: 54.1%
- Median time to emergence [3, 15]: 10.6 days
- Quartile range [3, 15]: 3.5 days
- Emergence [3, 16]: 25.0%
- Median time to emergence [3, 16]: 14.9 days
- Quartile range [3, 16]: 6.7 days
- Emergence [3, 17]: 89.2%
- Median time to emergence [3, 17]: 5.7 days
- Quartile range [3, 17]: 2.6 days
- Emergence [3, 18]: 86.1%
- Median time to emergence [3, 18]: 7.0 days
- Quartile range [3, 18]: 3.0 days
- Emergence [3, 19]: 86.2%
- Median time to emergence [3, 19]: 8.8 days
- Quartile range [3, 19]: 3.9 days
- Emergence [3, 20]: 75.1%
- Median time to emergence [3, 20]: 11.4 days
- Quartile range [3, 20]: 5.0 days
